Reference: US20260000656A1, “ANTIFUNGAL AGENTS WITH ENHANCED ACTIVITY IN ACIDIC PH” (Scynexis, Inc., priority 2017, published 2026)
Converted amounts (≈) assume the structure as drawn. Read-outs that look alike come from different tables or passages of the source.

Tested on: C. albicans isolates
Assay: Broth microdilution susceptibility (CLSI M27-A3) at different medium pH
Format: cell-based, Candida albicans
Protocol: Ten strains each of C. glabrata and C. albicans vaginal isolates were tested. The strains were obtained from recent clinical trial patients with vulvovaginal candidiasis (VVC) prior to treatment. Candida strains were obtained from the Mycology Reference Library (MRL) at Case Western Reserve University School of Medicine, Ohio, United States.
Susceptibility testing was performed using a broth microdilution method, according to CLSI M27-A3 guidelines (CLSI. 2008. Reference Method for Broth Dilution Antifungal Susceptibility Testing of Yeasts; Approved Standard—Third Edition. Clinical and Laboratory Standards Institute, CLSI document M27-A3). Antifungals and concentrations tested were SCY-078 and micafungin (both at concentrations within the range of 0.015 to 8 μg/ml) and fluconazole (at concentrations within the range of 0.125 to 64 μg/ml). A 0.1-ml C. albicans and C. glabrata inoculum of 0.5-2.5×10^3 blastospores/ml in RPMI 1640 medium was added to each microdilution well. ATCC strains of Candida parapsilosis and Candida krusei QC isolates were also included concurrently to ensure quality control. Antifungal susceptibility testing was carried out for each isolate in RPMI 1640 at pH 7 (to mimic RPMI medium used in testing the susceptibility of yeast by the CLSI M-27A3 document), pH 5.7, and pH 4.5 (to mimic the pH of the vaginal cavity) by adjusting the pH of the media using NaOH or HCl. […] Agents Chemother., 43: 1383-1386 (1999).
[…] SCY-078 powder was manufactured by Avista, Laboratories, NC. Micafungin and fluconazole were sourced from LGM Pharma.

[1] = 50% inhibition, pH 4.5, 24 h, 10 vaginal isolates

For `CC(C)[C@@H](C)[C@@]1(C)CC[C@]2(C)[C@H]3CC[C@@H]4[C@@]5(COC[C@]4(C)[C@@H](OC[C@](C)(N)C(C)(C)C)[C@H](n4ncnc4-c4ccncc4)C5)C3=CC[C@@]2(C)[C@@H]1C(=O)O` [SCY-078], the MIC50 [1] was < 0.016 µg/mL, the MIC90 [1] was < 0.016 µg/mL and the MIC range [1] was <0.016 to 0.031 µg/mL. For the same compound, the MIC range (50% inhibition, pH 5.72, 24 h, 10 vaginal isolates) was 0.125 to .25 µg/mL, the MIC range (50% inhibition, pH 7.0, 24 h, 10 vaginal isolates) was 0.125 to 0.5 µg/mL and the MIC range (100% inhibition, pH 4.5, 24 hours, 10 isolates) was <0.016 to 4 µg/mL. The MIC range (100% inhibition, pH 5.72, 24 hours, 10 isolates) was 0.25 to 2 µg/mL, the MIC range (100% inhibition, pH 7.0, 24 hours, 10 isolates) was 0.25 to 4 µg/mL and the “reduction in MIC50 at pH 4.5 compared to the MIC50 at pH 7.0” value (C. albicans isolates) was 16 fold. For the same compound, the MIC50 (Candida albicans, 24 h, pH 4.5, 50% inhibition, pH 4.5, 24 h, 10 vaginal isolates, read-out: MIC50) was < 0.016 µg/mL, the MIC90 (Candida albicans, 24 h, pH 4.5, 50% inhibition, pH 4.5, 24 h, 10 vaginal isolates, read-out: MIC90) was < 0.016 µg/mL and the MIC50 (Candida albicans, 24 h, pH 4.5, 100% inhibition, pH 4.5, 24 hours, 10 isolates, read-out: MIC50) was 0.031 µg/mL (≈ 0.0425 µM). The MIC90 (Candida albicans, 24 h, pH 4.5, 100% inhibition, pH 4.5, 24 hours, 10 isolates, read-out: MIC90) was 0.031 µg/mL (≈ 0.0425 µM), the MIC (Candida albicans, 24 h, pH 4.5, C. albicans MRL 34366, pH 4.5, 24 hours, read-out: MIC (50% inhibition)) was 0.031 µg/mL (≈ 0.0425 µM) and the MIC (Candida albicans, 24 h, pH 4.5, C. albicans MRL 34366, pH 4.5, 24 hours, read-out: MIC (100% inhibition)) was 0.031 µg/mL (≈ 0.0425 µM). The MIC (Candida albicans, 24 h, pH 4.5, C. albicans MRL 34367, pH 4.5, 24 hours, read-out: MIC (50% inhibition)) was < 0.016 µg/mL, the MIC (Candida albicans, 24 h, pH 4.5, C. albicans MRL 34367, pH 4.5, 24 hours, read-out: MIC (100% inhibition)) was 0.031 µg/mL (≈ 0.0425 µM) and the MIC (Candida albicans, 24 h, pH 4.5, C. albicans MRL 34372, pH 4.5, 24 hours, read-out: MIC (50% inhibition)) was < 0.016 µg/mL. For the same compound, the MIC (Candida albicans, 24 h, pH 4.5, C. albicans MRL 34372, pH 4.5, 24 hours, read-out: MIC (100% inhibition)) was < 0.016 µg/mL, the MIC (Candida albicans, 24 h, pH 4.5, C. albicans MRL 34373, pH 4.5, 24 hours, read-out: MIC (50% inhibition)) was < 0.016 µg/mL and the MIC (Candida albicans, 24 h, pH 4.5, C. albicans MRL 34373, pH 4.5, 24 hours, read-out: MIC (100% inhibition)) was < 0.016 µg/mL. The MIC (Candida albicans, 24 h, pH 4.5, C. albicans MRL 34374, pH 4.5, 24 hours, read-out: MIC (50% inhibition)) was < 0.016 µg/mL, the MIC (Candida albicans, 24 h, pH 4.5, C. albicans MRL 34374, pH 4.5, 24 hours, read-out: MIC (100% inhibition)) was < 0.016 µg/mL and the MIC (Candida albicans, 24 h, pH 4.5, C. albicans MRL 34385, pH 4.5, 24 hours, read-out: MIC (50% inhibition)) was < 0.016 µg/mL. The MIC (Candida albicans, 24 h, pH 4.5, C. albicans MRL 34385, pH 4.5, 24 hours, read-out: MIC (100% inhibition)) was 0.031 µg/mL (≈ 0.0425 µM), the MIC (Candida albicans, 24 h, pH 4.5, C. albicans MRL 34389, pH 4.5, 24 hours, read-out: MIC (50% inhibition)) was < 0.016 µg/mL and the MIC (Candida albicans, 24 h, pH 4.5, C. albicans MRL 34389, pH 4.5, 24 hours, read-out: MIC (100% inhibition)) was 0.031 µg/mL (≈ 0.0425 µM). For the same compound, the MIC (Candida albicans, 24 h, pH 4.5, C. albicans MRL 34399, pH 4.5, 24 hours, read-out: MIC (50% inhibition)) was < 0.016 µg/mL, the MIC (Candida albicans, 24 h, pH 4.5, C. albicans MRL 34399, pH 4.5, 24 hours, read-out: MIC (100% inhibition)) was 0.031 µg/mL (≈ 0.0425 µM) and the MIC (Candida albicans, 24 h, pH 4.5, C. albicans MRL 34408, pH 4.5, 24 hours, read-out: MIC (50% inhibition)) was < 0.016 µg/mL. For the same compound, the MIC (Candida albicans, 24 h, pH 4.5, C. albicans MRL 34408, pH 4.5, 24 hours, read-out: MIC (100% inhibition)) was 4 µg/mL (≈ 5.48 µM), the MIC (Candida albicans, 24 h, pH 4.5, C. albicans MRL 34449, pH 4.5, 24 hours, read-out: MIC (50% inhibition)) was < 0.016 µg/mL and the MIC (Candida albicans, 24 h, pH 4.5, C. albicans MRL 34449, pH 4.5, 24 hours, read-out: MIC (100% inhibition)) was 0.031 µg/mL (≈ 0.0425 µM). The MIC50 (Candida albicans, 24 h, pH 5.72, 50% inhibition, pH 5.72, 24 h, 10 vaginal isolates, read-out: MIC50) was 0.25 µg/mL (≈ 0.342 µM), the MIC90 (Candida albicans, 24 h, pH 5.72, 50% inhibition, pH 5.72, 24 h, 10 vaginal isolates, read-out: MIC90) was 0.25 µg/mL (≈ 0.342 µM) and the MIC50 (Candida albicans, 24 h, pH 5.72, 100% inhibition, pH 5.72, 24 hours, 10 isolates, read-out: MIC50) was 0.25 µg/mL (≈ 0.342 µM). The MIC90 (Candida albicans, 24 h, pH 5.72, 100% inhibition, pH 5.72, 24 hours, 10 isolates, read-out: MIC90) was 0.5 µg/mL (≈ 0.685 µM), the MIC (Candida albicans, 24 h, pH 5.72, C. albicans MRL 34366, pH 5.72, 24 hours, read-out: MIC (50% inhibition)) was 0.25 µg/mL (≈ 0.342 µM) and the MIC (Candida albicans, 24 h, pH 5.72, C. albicans MRL 34366, pH 5.72, 24 hours, read-out: MIC (100% inhibition)) was 0.5 µg/mL (≈ 0.685 µM). For the same compound, the MIC (Candida albicans, 24 h, pH 5.72, C. albicans MRL 34367, pH 5.72, 24 hours, read-out: MIC (50% inhibition)) was 0.125 µg/mL (≈ 0.171 µM).
